The values that follow are results of earlier work, collected in patent publication US4760029A, “Assay for D-1 antagonistic activity of neuroleptic drugs” (Schering Corporation, priority 1984, dated 1988).

Data set [1] concerns D-1 sites. To be noted: Eur. J. Pharmacol. 91, 153(1983).
The conditions of data set [2]: J. Pharmacol. Exp. Ther., 226, 462 (1983).
The test system of data set [3] is D-2 sites. The following applies: J. Pharmacol. Exp. Ther., 226, 462 (1983).
Data set [4] has as its system dopamine stimulated adenylate cyclase. The following applies: J. Pharmacol. Exp. Ther., 226, 462 (1983).

For the compound `CN1CCc2cc(Cl)c(O)cc2[C@@H](c2ccccc2)C1` [Compound, R-(+)-8-chloro-2,3,4,5-tetrahydro-3-methyl-5-phenyl-1H-3-benzazepin-7-ol], the “ability to inhibit ^3 H-cis-(Z)-piflutixol binding” value in data set [1] is recorded as “very potent”. Moreover, the prolactinemia result in data set [2] is listed as “no prolactinemia”. For the same compound, the “displacement of ^3 H-spiperone binding” value in data set [3] is on record as “weak displacement”. Moreover, in data set [4], the “blockade of dopamine stimulated adenylate cyclase” value is recorded as “potent blockade”.
